For assay [1], the target named is T1, AChE (E.C.3.1.1.7., Type VI-S, from electric eel) (Electrophorus electricus, UniProt O42275).
T1 construct: purchased Sigma-Aldrich (Steinheim, Germany) Type VI-S
Kind of assay: AChE inhibition, modified Ellman colorimetric method. The assay is classed as biochemical. The note with it: pH 8.0, 5-min incubation, mean ± SEM of triplicate independent experiments. An excerpt:
(§1) AChE (E.C.3.1.1.7., Type VI-S, from electric eel) and BuChE (E.C.3.1.1.8., from equine serum) were purchased from Sigma-Aldrich (Steinheim, Germany). 5,5′-Dithiobis(2-nitrobenzoic acid) (DTNB, Ellman’s reagent) acetylthiocholine iodide (AChI) and butyrylthiocholine iodide (BChI) used as substrates were obtained from Fluka. Buffer compounds (potassium dihydrogen phosphate, potassium hydroxide) and sodium hydrogen carbonate were purchased from Merck (Darmstadt, Germany). Spectrophotometric measurements were performed on a Shimadzu 160-A UV-Vis spectrophotometer.
(§2) The inhibitory effects of the synthesized compounds on AChE and BuChE were evaluated using a slightly modified colorimetric method of Ellman et al., with galantamine as the reference compound[41–45]. Prior to use, all solutions were adjusted to 20 °C. Enzyme solution (100 μL) and inhibitor solution (100 μL) were added into a cuvette containing the phosphate buffer (3.0 mL, 0.1 M; pH 8.0). After 5-min incubation, required aliquots of the DTNB solution (100 μL) and of the AChI/BChI (20 μL) were added. After rapid and immediate mixing, the absorption was measured at 412 nm by UV spectroscopy. As a reference, an identical solution of the enzyme without the inhibitor is processed following the same protocol. The blank reading contained 3.0 mL buffer, 200 μL water, 100 μL DTNB and 20 μL substrate. The enzyme activity was determined in the presence of at least five different concentrations of an inhibitor. Each concentration was assayed in triplicate. The samples were investigated immediately after preparation.
(§3) Inhibitory activities of the synthesized compounds against AChE and BuChE were evaluated by modified Ellman method, using galantamine as the reference compound[41–45]. The AChE inhibitory activity was determined by using electric eel acetylcholinesterase and the BuChE inhibitory activity was tested by using equine serum butyrylcholinesterase.
In general terms: DTNB colorimetry detects thiols as they appear.

Assay [2] has as its target T2, BuChE (E.C.3.1.1.8., from equine serum) (Equus caballus, UniProt P81908).
T2 construct: BuChE (E.C.3.1.1.8., from equine serum); purchased Sigma-Aldrich (Steinheim, Germany); host or cells: equine serum
Kind of assay: BuChE inhibition, modified Ellman colorimetric method. It is filed as biochemical. The note with it: pH 8.0, 5-min incubation, mean ± SEM of triplicate independent experiments.
Text: as §1, §2, §3

Bounds are passed on as bounds.

T2 sequence (P81908 whole entry): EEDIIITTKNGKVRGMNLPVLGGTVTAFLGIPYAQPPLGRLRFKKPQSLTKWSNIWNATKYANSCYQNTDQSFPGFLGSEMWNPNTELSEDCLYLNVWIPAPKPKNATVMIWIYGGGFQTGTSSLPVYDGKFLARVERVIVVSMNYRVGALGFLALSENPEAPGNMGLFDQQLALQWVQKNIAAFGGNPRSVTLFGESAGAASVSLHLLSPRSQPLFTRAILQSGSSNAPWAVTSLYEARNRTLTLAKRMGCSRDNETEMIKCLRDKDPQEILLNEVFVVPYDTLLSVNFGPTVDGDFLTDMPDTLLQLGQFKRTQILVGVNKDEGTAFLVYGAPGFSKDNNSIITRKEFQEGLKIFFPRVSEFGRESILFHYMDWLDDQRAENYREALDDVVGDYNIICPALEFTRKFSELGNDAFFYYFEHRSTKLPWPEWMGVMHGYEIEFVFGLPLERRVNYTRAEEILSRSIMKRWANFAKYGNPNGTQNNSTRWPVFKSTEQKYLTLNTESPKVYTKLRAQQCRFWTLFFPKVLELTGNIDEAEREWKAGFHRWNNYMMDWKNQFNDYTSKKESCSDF
T1 sequence (O42275 24-633): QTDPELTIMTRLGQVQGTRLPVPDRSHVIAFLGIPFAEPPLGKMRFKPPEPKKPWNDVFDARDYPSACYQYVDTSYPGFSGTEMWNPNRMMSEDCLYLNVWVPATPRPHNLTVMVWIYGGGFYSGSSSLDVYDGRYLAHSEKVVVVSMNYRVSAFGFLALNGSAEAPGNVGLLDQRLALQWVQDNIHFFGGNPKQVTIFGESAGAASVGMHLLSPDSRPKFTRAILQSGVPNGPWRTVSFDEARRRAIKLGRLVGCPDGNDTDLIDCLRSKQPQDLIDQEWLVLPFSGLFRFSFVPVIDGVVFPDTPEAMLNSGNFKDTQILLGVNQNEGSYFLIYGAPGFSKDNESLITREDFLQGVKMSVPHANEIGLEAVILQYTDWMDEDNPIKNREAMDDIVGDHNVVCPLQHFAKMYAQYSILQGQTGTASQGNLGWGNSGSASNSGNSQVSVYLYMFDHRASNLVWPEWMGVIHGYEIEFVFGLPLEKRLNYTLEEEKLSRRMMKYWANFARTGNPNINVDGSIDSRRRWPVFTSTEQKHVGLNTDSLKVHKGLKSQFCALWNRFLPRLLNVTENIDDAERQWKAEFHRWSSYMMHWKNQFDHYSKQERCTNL

For orientation: IC50 means the concentration that inhibits the measured activity by half. High values mean weaker potency, low ones greater potency. Take `O=C1c2ccccc2C(=O)N1c1ccc(S(=O)(=O)N2CCCC2)cc1` [Compound 8, 2-(4-(Pyrrolidin-1-ylsulfonyl)phenyl)isoindoline-1,3-dione]: the IC50 in assay [1] and in assay [2] was greater than 100 µM throughout.

In the case of `O=C1c2ccccc2C(=O)N1c1ccc(S(=O)(=O)N2CCCCC2)cc1` [Compound 9, 2-(4-(Piperidin-1-ylsulfonyl)phenyl)isoindoline-1,3-dione], the values for the IC50 in assay [1] and in assay [2] were 10.4 ± 0.61 µM and greater than 100 µM, respectively.

For `CCN(CC)S(=O)(=O)c1ccc(N2C(=O)c3ccccc3C2=O)cc1` [Compound 7, 4-(1,3-Dioxoisoindolin-2-yl)-N,N-diethylbenzenesulfonamide], the IC50 was 1.35 ± 0.08 µM in assay [1] and greater than 100 µM in assay [2].

With `O=C1c2ccccc2C(=O)N1c1ccc(S(=O)(=O)Nc2ccc(Cl)cc2)cc1` [Compound 6, 4-(1,3-Dioxoisoindolin-2-yl)-N-(4-chlorophenyl)benzenesulfonamide], the IC50 was determined as 8.21 ± 0.14 µM in assay [1] and 78.1 ± 5.39 µM in assay [2].

For the molecule `O=C1c2ccccc2C(=O)N1c1ccc(S(=O)(=O)N2CCOCC2)cc1` [Compound 11, 2-(4-(Morpholinosulfonyl)phenyl)isoindoline-1,3-dione], the values for the IC50 in assay [1] and in assay [2] were 7.95 ± 0.22 µM and 56.7 ± 3.26 µM, respectively.

Take `CC(C)c1ccccc1NS(=O)(=O)c1ccc(N2C(=O)c3ccccc3C2=O)cc1` [Compound 3, 4-(1,3-Dioxoisoindolin-2-yl)-N-(2-isopropylphenyl)benzenesulfonamide]: the figures for the IC50 in assay [1] and in assay [2] were 8.19 ± 0.13 µM and 13.4 ± 0.62 µM, respectively.

Turning to `CC1CCCCN1S(=O)(=O)c1ccc(N2C(=O)c3ccccc3C2=O)cc1` (stereo not shown) [Compound 10, 2-(4-((2-Methylpiperidin-1-yl)sulfonyl)phenyl)isoindoline-1,3-dione], the values for the IC50 in assay [1] and in assay [2] were 8.05 ± 0.54 µM and 75.2 ± 23.8 µM, respectively.

As for `COc1ccccc1NS(=O)(=O)c1ccc(N2C(=O)c3ccccc3C2=O)cc1` [Compound 2, 4-(1,3-Dioxoisoindolin-2-yl)-N-(2-methoxyphenyl)benzenesulfonamide], the IC50 in assay [1] came out at 6.79 ± 0.41 µM; in assay [2], 44.2 ± 13.4 µM.

As to `Cc1ccc(NS(=O)(=O)c2ccc(N3C(=O)c4ccccc4C3=O)cc2)cc1` [Compound 4, 4-(1,3-Dioxoisoindolin-2-yl)-N-(p-tolyl)benzenesulfonamide], the values for the IC50 in assay [1] and in assay [2] were 8.61 ± 0.18 µM and 85 ± 13.7 µM, respectively.

Consider `COc1ccc(NS(=O)(=O)c2ccc(N3C(=O)c4ccccc4C3=O)cc2)cc1` [Compound 5, 4-(1,3-Dioxoisoindolin-2-yl)-N-(4-methoxyphenyl)benzenesulfonamide], for which the results for the IC50 in assay [1] and in assay [2] were 8.52 ± 0.18 µM and 87.2 ± 13.2 µM, respectively.

On to `Cc1ccccc1NS(=O)(=O)c1ccc(N2C(=O)c3ccccc3C2=O)cc1` [Compound 1, 4-(1,3-Dioxoisoindolin-2-yl)-N-(o-tolyl)benzenesulfonamide], for which the IC50 in assay [1] stood at 6.84 ± 0.17 µM; in assay [2] it was 74.4 ± 2.34 µM.

Source of the values: publication PMC6009942, “Synthesis and molecular docking studies of some 4-phthalimidobenzenesulfonamide derivatives as acetylcholinesterase and butyrylcholinesterase inhibitors” (Journal of Enzyme Inhibition and Medicinal Chemistry, 2016).
